Test results as given in patent US20070270358A1, “Cosmetic and/or Pharmaceutical Composition for the Treatment of the Rosacea” (priority 2004, published 2007).
Read-outs that look alike come from different tables or passages of the source.

Tests used:
human keratinocytes [1] = assay: Dosage of ROS (DCF fluorescence) after UV-induced oxidative stress; type: cell-based; details: for fluorescence, directly proportional to the quantity of ROS (average value) / anti-radical protection percentage: after 5 minutes exposure to UV
Description: The substance to be tested was diluted in a salt solution to the final concentrations required. The dichlorofluorescein acetate (DCF) was diluted apart in a special buffer. The DCF reacts with the free radicals if present giving rise to a fluorescent derivative, and the fluorometry reading gives a quantity related to the presence of this substance in the cells analyzed. A sufficient number of cells (30,000 cells/well) is sown in the wells of a […]. After a pre-incubation period overnight with the different sample concentrations, the culture medium is sucked out of the wells and replaced with 500 μl of DCF solution. The plates are placed in a CO2 thermo regulator at 37° C. to incubate for 15 minutes. At this point the DCF solution is discarded. After a 5 minute period of exposure to UV rays, the oxidative stress is interrupted, and the fluorometry reading taken. The lamp used in the experiments reproduces the solar spectrum with a constant UVA emission field of between 315 and 400 nm. The emission of UVB is appropriately shielded to avoid direct cytotoxic damage to the cell cultures. The plate containing the cells is irradiated at room temperature with an intensity of 1.7 mW/cm^2 of UVA […].
Reading of the fluorometry is carried out at the excitation wave length of 485 nm and emission of 530 nm directly on the plates (Toxicol. Letters 1997-93: 47-54).
(§1) • Control negative (C−): cells not treated • Control positive (C+): cells exposed to UV without protective treatment • Samples: • cells exposed to UV in the presence of protective substances: • Vitamin C 0.1 mg/ml (anti-oxidant of comparison) • SOL.—Solution 20% dimethyl sulfone
The results are given in terms of fluorescence, that are directly proportional to the quantity of ROS
The anti-radical protection percentage offered by the substance is calculated using the following formula: […]

human keratinocytes [2] = type: cell-based
Description: A second test, through the determination of the vitality of the cells using the MTT method, enables evaluation of the total damage suffered by the cells (in the absence of and following oxidative stress) and the protective effect produced by the substance tested in different concentrations.
Before and following exposure to UV rays, an MTT test is carried out to evaluate the toxic impact on the cell energetic system (mitochondrions) compared with cells not protected from oxidative stress a cells not exposed to stress. The MTT test is simple, accurate and gives reproducible results. This method, originally developed by Mossman […], is based on a yellow substance in solution. The mitochondrial dehydrogenize of live cells is able to cut the tetrazolium ring causing the formation of insoluble purple coloured salts. The crystals can de dissolved in acidified isopropanol and the purple solution formed can be spectrophotometrically dosed. An increase/decrease in number of the live cells can be evaluated as corresponding to the increase or decrease in the optical absorption due to formazano salts, giving a quantification of the global cytotoxic event.
as §1
Cellular vitality as evaluated in the absence of oxidative stress (UV−) and after 5 minutes of exposure to […]
Absorption values (O.D) at 540 nm (in proportion to the number of cells). Evaluation of cellular vitality in the absence of oxidative stress

`O=C1O[C@H]([C@@H](O)CO)C(O)=C1O` [VIT C, Vitamin C, reference compound] was tested, and the “fluorescence, directly proportional to the quantity of ROS (average value)” value (from here on “fluorescence, directly proportional”) (human keratinocytes [1]; 0.1 mg/ml) was 20837, the “cellular vitality, absorption value at 540 nm (average value)” value (from here on “cellular vitality, absorption value”) (human keratinocytes [2]; 0.1 mg/ml, after 5 minutes exposure to UV (UV+)) was 2.904 O.D and the “cellular vitality, absorption value” value (human keratinocytes [2]; human, 0.1 mg/ml) was 2.977 O.D.

For `CS(C)(=O)=O` [MSM SOL. 20%, dimethyl sulfone], the anti-radical protection percentage (human keratinocytes [1]; 0.003 mg/ml) was 41.2%, the “fluorescence, directly proportional” value (human keratinocytes [1]; 0.003 mg/ml) was 17820 and the anti-radical protection percentage (human keratinocytes [1]; 0.01 mg/ml) was 37.5%. The “fluorescence, directly proportional” value (human keratinocytes [1]; 0.01 mg/ml) was 18887, the anti-radical protection percentage (human keratinocytes [1]; 0.03 mg/ml) was 34.8% and the “fluorescence, directly proportional” value (human keratinocytes [1]; 0.03 mg/ml) was 19686. The anti-radical protection percentage (human keratinocytes [1]; 0.09 mg/ml) was 43.7%, the “fluorescence, directly proportional” value (human keratinocytes [1]; 0.09 mg/ml) was 17117 and the anti-radical protection percentage (human keratinocytes [1]; 0.28 mg/ml) was 38.3%. The “fluorescence, directly proportional” value (human keratinocytes [1]; 0.28 mg/ml) was 18675, the anti-radical protection percentage (human keratinocytes [1]; 0.83 mg/ml) was 44.6% and the “fluorescence, directly proportional” value (human keratinocytes [1]; 0.83 mg/ml) was 16848. For the same compound, the anti-radical protection percentage (human keratinocytes [1]; 2.5 mg/ml) was 41.4%, the “fluorescence, directly proportional” value (human keratinocytes [1]; 2.5 mg/ml) was 17782 and the “antioxidant activity: presence of ROS in keratinocyte cultures subjected to oxidative stress” value (human keratinocytes [1]; concentration between 0.003 and 2.5 mg/ml) was “significantly reduces the presence of reactive oxygen species (ROS)”. The “cellular vitality, absorption value” value (human keratinocytes [2]; 0.003 mg/ml, after 5 minutes exposure to UV (UV+)) was 3.020 O.D, the “cellular vitality, absorption value” value (human keratinocytes [2]; 0.01 mg/ml, after 5 minutes exposure to UV (UV+)) was 2.977 O.D and the “cellular vitality, absorption value” value (human keratinocytes [2]; 0.03 mg/ml, after 5 minutes exposure to UV (UV+)) was 2.940 O.D. The “cellular vitality, absorption value” value (human keratinocytes [2]; 0.09 mg/ml, after 5 minutes exposure to UV (UV+)) was 2.987 O.D, the “cellular vitality, absorption value” value (human keratinocytes [2]; 0.28 mg/ml, after 5 minutes exposure to UV (UV+)) was 2.832 O.D and the “cellular vitality, absorption value” value (human keratinocytes [2]; 0.83 mg/ml, after 5 minutes exposure to UV (UV+)) was 2.838 O.D. For the same compound, the “cellular vitality, absorption value” value (human keratinocytes [2]; 2.5 mg/ml, after 5 minutes exposure to UV (UV+)) was 2.777 O.D and the “cytoprotective activity: cellular vitality following exposure to UV radiation” value (human keratinocytes [2]; concentration between 0.003 and 2.5 mg/ml, versus non-treated keratinocytes) was “cellular vitality of treated Keratinocytes is greater compared with non-treated Keratinocytes”.
